For one experiment, the system named is L1210. Description: Cytotoxicity against mouse L1210 cells. It is filed as functional, cell-based.
The target of experiment [1] is Microtubule-associated protein 1B (Rattus norvegicus) (UniProt P15205). Description: Binding affinity to MAP1B in rat PC12 cells after 2 hrs by Western blotting analysis. The class given is cell-based. Particulars: PC-12. A general note: Immunoblotting shows a protein as a band on a membrane.
Experiment [2] can be described thus: Cytotoxicity against human HCT8 cells. Particulars: HCT-8. The class given is functional, cell-based.
Experiment [3] deals with T1, Microtubule-associated protein 1B (Homo sapiens, UniProt P46821). Description: Binding affinity to MAP1B in human MCF7 cells assessed as protein localization around perinuclear region at 1 uM after 24 hrs by DAPI staining-based immunofluorescence microscopy relative to control. It is filed as cell-based.
The test system of another experiment is Ehrlich. Nature of the experiment: Inhibition of topoisomerse-2 in mouse EAC cells. The class given is cell-based.
Experiment [4] deals with T1, Microtubule-associated protein 1B. Nature of the experiment: Binding affinity to human recombinant MAP1B-HBR (589 to 790) expressed in Escherichia coli BL21(DE3) assessed as inhibition of MAP1B-HBR-tubulin interaction at 1 to 20 uM by surface plasmon resonance analysis. (Surface plasmon resonance follows binding to a sensor surface in real time, without labels.)
The target is the same in experiment [5]. Description: Binding affinity to MAP1B in human MCF7 cells assessed as protein complex at 1 uM after 24 hrs by DAPI staining-based immunofluorescence microscopy relative to control. It is filed as cell-based.
The nature of experiment [6]: Inhibition of PP2A (unknown origin) by spectrophotometry. On the set-up: species or system Homo sapiens.
Experiment [7] deals with Ribosomal L1 domain-containing protein 1 (Homo sapiens) (UniProt O76021). Nature of the experiment: Binding affinity to human ribosomal L1 domain containing protein (309 to 432) expressed in T7 phage after 1 hr by ELISA.
Experiment [8] has as its target T1, Microtubule-associated protein 1B. Nature of the experiment: Binding affinity to human MAP1B (582 to 705) expressed in T7 phage after 1 hr by ELISA. In general terms: An ELISA detects its analyte on a solid surface through an enzyme-linked reagent.
For experiment [9] the target is unchanged. Nature of the experiment: Binding affinity to human recombinant MAP1B-HBR (589 to 790) expressed in Escherichia coli BL21(DE3) by surface plasmon resonance analysis.

Values after ≈ are worked out from the molar mass of the structure shown. Active and inactive are the calls of the source.

T1 sequence (P46821 2-2206 limits assumed): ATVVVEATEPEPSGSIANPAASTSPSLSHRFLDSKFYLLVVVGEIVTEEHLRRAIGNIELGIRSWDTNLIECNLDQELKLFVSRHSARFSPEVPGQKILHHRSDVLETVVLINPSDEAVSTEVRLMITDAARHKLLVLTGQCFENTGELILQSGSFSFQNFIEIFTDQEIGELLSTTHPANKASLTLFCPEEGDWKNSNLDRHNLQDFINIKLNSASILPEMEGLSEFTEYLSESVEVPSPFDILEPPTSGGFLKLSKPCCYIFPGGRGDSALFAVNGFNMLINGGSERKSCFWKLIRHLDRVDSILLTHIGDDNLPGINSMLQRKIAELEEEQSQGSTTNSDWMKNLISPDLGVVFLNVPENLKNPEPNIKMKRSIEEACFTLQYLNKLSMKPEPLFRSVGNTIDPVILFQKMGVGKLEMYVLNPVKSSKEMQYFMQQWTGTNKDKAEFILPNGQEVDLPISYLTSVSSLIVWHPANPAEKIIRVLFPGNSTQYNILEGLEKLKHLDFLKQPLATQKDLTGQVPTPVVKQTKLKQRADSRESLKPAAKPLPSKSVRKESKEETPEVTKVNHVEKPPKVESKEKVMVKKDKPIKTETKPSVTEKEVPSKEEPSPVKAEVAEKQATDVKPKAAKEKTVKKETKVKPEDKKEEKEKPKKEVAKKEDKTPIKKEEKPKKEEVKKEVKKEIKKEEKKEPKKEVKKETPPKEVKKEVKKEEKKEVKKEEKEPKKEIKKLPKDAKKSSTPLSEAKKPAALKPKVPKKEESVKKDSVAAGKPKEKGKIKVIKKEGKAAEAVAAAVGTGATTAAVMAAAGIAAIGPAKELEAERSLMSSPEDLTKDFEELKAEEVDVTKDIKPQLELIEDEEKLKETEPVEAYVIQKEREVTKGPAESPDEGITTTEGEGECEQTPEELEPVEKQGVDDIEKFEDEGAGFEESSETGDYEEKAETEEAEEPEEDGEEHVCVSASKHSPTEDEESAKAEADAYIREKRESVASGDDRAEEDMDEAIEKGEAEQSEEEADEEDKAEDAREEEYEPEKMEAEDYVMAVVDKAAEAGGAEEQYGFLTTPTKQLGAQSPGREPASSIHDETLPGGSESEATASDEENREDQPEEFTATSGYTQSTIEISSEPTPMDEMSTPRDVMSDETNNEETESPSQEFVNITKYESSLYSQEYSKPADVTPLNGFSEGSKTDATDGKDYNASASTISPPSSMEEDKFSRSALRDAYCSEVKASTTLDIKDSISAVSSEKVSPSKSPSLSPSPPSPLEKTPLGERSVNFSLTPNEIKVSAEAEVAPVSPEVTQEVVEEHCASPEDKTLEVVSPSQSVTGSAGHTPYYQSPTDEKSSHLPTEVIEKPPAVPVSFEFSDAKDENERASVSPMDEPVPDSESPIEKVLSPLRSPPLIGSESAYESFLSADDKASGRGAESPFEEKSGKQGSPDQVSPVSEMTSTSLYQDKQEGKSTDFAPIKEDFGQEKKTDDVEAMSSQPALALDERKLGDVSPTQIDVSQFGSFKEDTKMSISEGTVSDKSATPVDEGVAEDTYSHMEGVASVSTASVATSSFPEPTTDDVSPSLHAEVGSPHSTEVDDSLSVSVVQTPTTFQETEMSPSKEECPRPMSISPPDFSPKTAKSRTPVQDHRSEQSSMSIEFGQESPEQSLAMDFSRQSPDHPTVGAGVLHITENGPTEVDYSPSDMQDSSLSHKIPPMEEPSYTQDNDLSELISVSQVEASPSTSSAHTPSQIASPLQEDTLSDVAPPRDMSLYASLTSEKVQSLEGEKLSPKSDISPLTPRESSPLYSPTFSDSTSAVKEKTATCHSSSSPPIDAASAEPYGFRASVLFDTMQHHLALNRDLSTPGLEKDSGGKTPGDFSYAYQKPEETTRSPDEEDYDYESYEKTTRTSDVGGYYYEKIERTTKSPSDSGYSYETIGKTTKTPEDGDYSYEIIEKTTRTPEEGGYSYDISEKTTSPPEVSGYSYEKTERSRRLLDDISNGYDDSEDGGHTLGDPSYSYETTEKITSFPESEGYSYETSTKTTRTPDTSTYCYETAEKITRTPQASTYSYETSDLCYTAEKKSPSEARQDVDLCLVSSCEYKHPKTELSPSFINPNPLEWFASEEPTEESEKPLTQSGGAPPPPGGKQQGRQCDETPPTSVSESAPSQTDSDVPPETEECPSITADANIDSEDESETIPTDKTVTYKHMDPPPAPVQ
T1 sequence (P46821 2207-2468 limits assumed): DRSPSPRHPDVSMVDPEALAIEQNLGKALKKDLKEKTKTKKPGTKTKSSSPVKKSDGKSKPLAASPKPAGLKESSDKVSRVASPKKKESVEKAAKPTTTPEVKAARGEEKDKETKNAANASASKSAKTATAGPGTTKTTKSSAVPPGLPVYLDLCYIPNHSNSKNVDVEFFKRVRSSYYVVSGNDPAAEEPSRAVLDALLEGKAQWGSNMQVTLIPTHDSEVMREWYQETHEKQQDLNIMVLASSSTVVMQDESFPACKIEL
Microtubule-associated protein 1B (Rattus norvegicus), sequence (P15205 whole entry): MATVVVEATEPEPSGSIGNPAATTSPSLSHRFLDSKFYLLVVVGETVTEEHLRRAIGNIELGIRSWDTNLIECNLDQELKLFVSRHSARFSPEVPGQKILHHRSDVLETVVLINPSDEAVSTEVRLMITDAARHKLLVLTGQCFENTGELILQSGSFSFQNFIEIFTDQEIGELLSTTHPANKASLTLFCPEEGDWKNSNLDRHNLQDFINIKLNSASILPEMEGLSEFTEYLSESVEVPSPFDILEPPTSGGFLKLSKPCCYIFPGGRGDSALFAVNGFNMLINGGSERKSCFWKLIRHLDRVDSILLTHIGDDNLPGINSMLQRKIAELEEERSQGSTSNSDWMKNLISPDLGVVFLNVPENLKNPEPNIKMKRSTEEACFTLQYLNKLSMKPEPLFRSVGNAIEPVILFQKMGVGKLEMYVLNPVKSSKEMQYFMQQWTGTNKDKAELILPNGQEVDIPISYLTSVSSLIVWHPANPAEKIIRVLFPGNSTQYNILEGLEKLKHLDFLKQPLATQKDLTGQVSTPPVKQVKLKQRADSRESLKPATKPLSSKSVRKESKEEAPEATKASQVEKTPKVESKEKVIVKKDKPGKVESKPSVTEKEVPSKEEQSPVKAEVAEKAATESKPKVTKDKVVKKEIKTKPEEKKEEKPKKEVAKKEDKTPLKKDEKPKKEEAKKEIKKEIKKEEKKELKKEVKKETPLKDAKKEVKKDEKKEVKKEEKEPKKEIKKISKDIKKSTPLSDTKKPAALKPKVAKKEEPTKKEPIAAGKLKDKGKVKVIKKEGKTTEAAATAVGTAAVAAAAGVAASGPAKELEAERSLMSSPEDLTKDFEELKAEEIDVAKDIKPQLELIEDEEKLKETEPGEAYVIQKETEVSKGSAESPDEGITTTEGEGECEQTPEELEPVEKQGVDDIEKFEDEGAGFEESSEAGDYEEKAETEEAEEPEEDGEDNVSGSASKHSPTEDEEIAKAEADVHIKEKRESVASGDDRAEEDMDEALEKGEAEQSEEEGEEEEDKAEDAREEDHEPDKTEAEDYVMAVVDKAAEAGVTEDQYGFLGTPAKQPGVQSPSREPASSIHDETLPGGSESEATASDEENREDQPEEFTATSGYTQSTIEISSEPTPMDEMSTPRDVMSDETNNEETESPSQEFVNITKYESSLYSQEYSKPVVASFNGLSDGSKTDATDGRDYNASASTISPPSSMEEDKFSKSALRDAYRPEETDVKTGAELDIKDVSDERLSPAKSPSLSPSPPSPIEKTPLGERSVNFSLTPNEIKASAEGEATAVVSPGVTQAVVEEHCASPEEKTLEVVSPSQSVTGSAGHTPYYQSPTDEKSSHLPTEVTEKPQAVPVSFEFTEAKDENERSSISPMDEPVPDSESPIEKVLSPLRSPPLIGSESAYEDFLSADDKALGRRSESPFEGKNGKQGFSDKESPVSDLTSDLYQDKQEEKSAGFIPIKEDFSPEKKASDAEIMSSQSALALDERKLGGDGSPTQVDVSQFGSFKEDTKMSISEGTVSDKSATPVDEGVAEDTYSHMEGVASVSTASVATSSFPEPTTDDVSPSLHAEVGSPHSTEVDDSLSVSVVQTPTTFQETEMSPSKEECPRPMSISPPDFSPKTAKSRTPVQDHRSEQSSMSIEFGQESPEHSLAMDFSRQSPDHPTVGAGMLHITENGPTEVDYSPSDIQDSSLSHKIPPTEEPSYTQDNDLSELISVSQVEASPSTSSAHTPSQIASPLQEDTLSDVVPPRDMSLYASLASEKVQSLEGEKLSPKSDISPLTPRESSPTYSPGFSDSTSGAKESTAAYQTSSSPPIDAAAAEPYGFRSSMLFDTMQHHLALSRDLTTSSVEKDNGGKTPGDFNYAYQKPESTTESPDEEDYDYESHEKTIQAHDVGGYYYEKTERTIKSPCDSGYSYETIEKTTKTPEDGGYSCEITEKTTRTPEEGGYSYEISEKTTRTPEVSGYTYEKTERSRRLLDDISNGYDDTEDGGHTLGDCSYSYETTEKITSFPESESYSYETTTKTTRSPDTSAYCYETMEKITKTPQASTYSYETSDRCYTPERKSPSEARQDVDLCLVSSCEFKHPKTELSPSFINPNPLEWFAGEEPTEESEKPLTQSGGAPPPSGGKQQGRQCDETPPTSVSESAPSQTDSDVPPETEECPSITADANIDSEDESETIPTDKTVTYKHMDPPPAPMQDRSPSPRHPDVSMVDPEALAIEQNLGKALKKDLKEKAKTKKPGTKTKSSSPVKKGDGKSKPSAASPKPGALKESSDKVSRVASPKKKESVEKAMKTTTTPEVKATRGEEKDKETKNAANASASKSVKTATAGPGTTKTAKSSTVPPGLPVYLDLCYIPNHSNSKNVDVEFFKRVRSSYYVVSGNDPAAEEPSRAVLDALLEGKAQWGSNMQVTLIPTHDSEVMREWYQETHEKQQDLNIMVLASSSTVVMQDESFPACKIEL

The term IC50 denotes the concentration needed to halve the response being measured. Low values mean greater potency in that assay, high ones weaker potency in that assay. A word on the MIC: it is the smallest concentration in the dilution series that meets the test's criterion for growth inhibition. Read a low MIC as greater potency. As to `C[C@@](O)(/C=C/[C@@H]1OC(=O)C=C[C@@H]1O)[C@@H](C[C@@H](O)\C=C/C=C\C=C\CO)OP(=O)(O)O`, the values for the IC50 (with L1210; in experiment [2]) were 1.8 µM and 9 µM, respectively. The result in [1], in experiment [3], in experiment [4] and in [5] was Active. In the experiment on Ehrlich, this compound returned an MIC of 12.5 µM (≈ 5.58 µg/mL).
Consider `C[C@@](O)(/C=C/[C@H]1CC=CC(=O)O1)[C@@H](C[C@@H](O)\C=C/C=C\C=C\CO)OP(=O)(O)O` [FOSTRIECIN], for which the IC50 in experiment [2] was 5.1 µM; in [6] it was 0.0015 µM. This compound displayed an MIC in the experiment with Ehrlich of 50 µM (≈ 21.5 µg/mL).
For `O=C(CCCC[C@@H]1SC[C@@H]2NC(=O)N[C@@H]21)NCCOCCn1cc(COCCOCCOc2ccc(COP(=O)(O)O)cc2)nn1`, in [7], the outcome was Active. The outcome in experiment [8] was inactive.
A word on the Kd: it is the constant that tells how readily two partners part at equilibrium. Consider `C[C@@](O)(/C=C/[C@@H]1OC(=O)C=C[C@@H]1OCc1ccc(OCCOCCOCc2cn(CCOCCNC(=O)CCCC[C@@H]3SC[C@@H]4NC(=O)N[C@@H]43)nn2)cc1)[C@@H](C[C@@H](O)\C=C/C=C\C=C\CO)OP(=O)(O)O`, for which the Kd in experiment [9] came to 0.21 µM. Also, the result in experiment [7] and in experiment [8] was Active.
